The values below come from patent US20260272868A1 (priority 2022, published 2026).

“And” between values parts separate entries of the source, which are not always exact repeats. Equal values may be shown once. Read-outs that look alike come from different tables or passages of the source. Some results are limits rather than exact numbers.

The nature of one series: in vivo. Particulars: male, C57BL/6, mouse. The method, then: Male C57BL/6 mice, aged 8-12 weeks, were used in these studies. Mice were housed 4 per cage under standard temperature- and humidity-controlled laboratory conditions with a 12-hour light/dark cycle. Mice had free access to food and water but were fasted from 4 h prior to and until 2 h after dosing. Animals were randomly assigned to treatment groups.
Doses were corrected for salt form so that the dose administered represented free base.
Immediately after blood collection, plasma was harvested by centrifugation at 4,000 rpm for 10 min at 4° C. and samples were stored at −70±10° C. until bioanalysis. Following blood collection, animals were immediately sacrificed, the abdominal vena-cava was cut open, the whole body was perfused from the heart using 10 mL of normal saline, and brain samples were collected from all animals. After isolation, brain samples were rinsed three times in ice-cold normal saline (for 5-10 seconds/rinse using ~5-10 mL normal saline in a disposable petri dish for each rinse) and dried on blotting paper. Brain samples were homogenized using ice-cold phosphate-buffered saline (pH 7.4). Total homogenate volume was three times the tissue weight. All homogenates were stored at −70±10° C. until bioanalysis. For bioanalysis, 20 μL aliquots of plasma/brain study samples or spiked plasma/brain calibration standards were added to individual pre-labeled micro-centrifuge tubes followed by 200 μL of an internal standard solution (cetirizine, 50 ng/mL in acetonitrile) except for blanks, where 200 μL of acetonitrile was added. Samples were vortexed for 5 minutes and then centrifuged for 10 minutes at 4,000 rpm at 4° C. Following centrifugation, 200 μL of each clear supernatant was transferred to a 96-well plate and analyzed with a fit-for-purpose LC-MS/MS method, with authentic samples of each analyte used for calibration and identification.

The nature of series [1]: Plasma protein binding, rapid equilibrium dialysis, mouse plasma. The format is in vitro ADME. On the procedure:
(§1) A 1 mM stock solution of trazadone was prepared in DMSO and diluted 200-fold in mouse or human plasma to yield a final concentration of 5 μM. The final DMSO concentration was 0.5%. Rapid equilibrium dialysis (RED) was performed with a RED device containing a dialysis membrane with a molecular weight cut-off of 8,000 Daltons. Each dialysis insert contains two chambers. The red chamber is for plasma while the white chamber is for buffer.
(§2) For each dialysis insert, aliquots (200 μL) of positive control or test compound at 5 μM (n=2) were separately added to the plasma chamber and 350 μL of phosphate buffered saline (pH 7.4) was added to the buffer chamber. After sealing the RED device with an adhesive film, dialysis was performed in an incubator at 37° C. with shaking at 300 RPM for 4 hours. To assess recovery and stability, 50 μL aliquots of positive control and test compound were added to 96-deep well plates and quenched with 400 μL acetonitrile (for 0 min), while comparator aliquots were incubated at 37° C. for 4 hours along with the RED device.
(§3) Following dialysis, an aliquot of 50 μL was removed from each well (both plasma and buffer side) and diluted with an equal volume of the opposite matrix (dialyzed with the other matrix) to nullify the matrix effect. Similarly, 50 μL of buffer was added to recovery and stability samples. An aliquot of 100 μL was submitted for LC-MS/MS analysis. […]
Background: Equilibrium dialysis compares concentrations on both sides of a semipermeable membrane.

Series [2] relates to head twitch response (HTR). The format is in vivo, mice. The method, then:
Male C57BL/6 mice (~7-9 weeks old) were used in these studies. Mice were housed 2 per cage under standard temperature- and humidity-controlled laboratory conditions with a 12-hour light/dark cycle. Mice had free access to food and water.
Both compounds were dissolved in saline vehicle at a dose volume of 10 mL/kg. Doses were corrected for salt form so that the dose administered represented free base.
Mice were randomly assigned to 1 of 6 treatment groups consisting of 2 subcutaneous injections (see Table 1), which were administered according to the schedule in FIG. 1. […] Behavior was videotaped by a camera (GoPro Hero 9) mounted above the testing chambers. Recorded video was uploaded for analysis of head twitch behavior. Number of head twitch responses (HTRs) was recorded for each animal for each 2-min bin. For each treatment group, the mean number of HTRs in each 2- or 10-min bin, and across the whole 30-min recording period, were analyzed.

Series [3] in a line: Plasma protein binding, rapid equilibrium dialysis, human plasma. It counts as in vitro ADME. On the procedure: as §1, §2, §3
The conditions of series [4]: cited from earlier work.
Series [5] is described as follows: Human plasma pharmacokinetic parameters of trazodone collected from the literature. It counts as in vivo. Particulars: mean of literature values.
A further series deals with T1, 5-HT2A receptor (Homo sapiens, UniProt P28223).
T1 construct: (~mg per ~70 kg human, route); host or cells: human subjects (in vivo doses)
T1 sequence (P28223 whole entry): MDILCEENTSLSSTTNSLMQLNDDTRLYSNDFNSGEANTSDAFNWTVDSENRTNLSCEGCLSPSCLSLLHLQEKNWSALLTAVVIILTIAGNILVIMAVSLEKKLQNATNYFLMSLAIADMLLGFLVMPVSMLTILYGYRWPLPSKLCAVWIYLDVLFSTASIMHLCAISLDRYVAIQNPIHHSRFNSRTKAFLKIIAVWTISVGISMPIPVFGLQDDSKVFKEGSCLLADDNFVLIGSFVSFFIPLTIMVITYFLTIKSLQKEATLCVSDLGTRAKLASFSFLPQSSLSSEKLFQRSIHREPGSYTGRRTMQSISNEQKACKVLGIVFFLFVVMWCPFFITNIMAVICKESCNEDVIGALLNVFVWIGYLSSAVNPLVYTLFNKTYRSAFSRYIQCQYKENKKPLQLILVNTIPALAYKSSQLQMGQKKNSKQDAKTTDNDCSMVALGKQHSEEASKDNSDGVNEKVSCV
As to conditions: cited from earlier work.

As for `O=c1n(CCCN2CCN(c3cccc(Cl)c3)CC2)nc2ccccn12` [trazodone], the concentration at 5 min is 800 ng/mL and 700 ng/g in the series “in vivo” (1 mg/kg); 1480 ng/mL and 1750 ng/g in the series “in vivo” (3.2 mg/kg); 3490 ng/mL and 7930 ng/g in “in vivo” (10 mg/kg). For the same compound, the concentration at 15 min is 504 ng/mL and 584 ng/g in “in vivo” (1 mg/kg); 1350 ng/mL and 1600 ng/g in “in vivo” (3.2 mg/kg); 2870 ng/mL and 5100 ng/g in the series “in vivo” (10 mg/kg). For the same compound, the concentration at 25 min in “in vivo” (1 mg/kg) is 369 ng/mL and 255 ng/g; in “in vivo” (3.2 mg/kg) it was 1020 ng/mL and 674 ng/g; in “in vivo” (10 mg/kg) it was 1910 ng/mL and 3580 ng/g. Also, the “bound fraction in plasma” value in series [1] (5 μM, 4 hours, 37° C.) stood at 94.4%; in series [3] (5 μM, 4 hours, 37° C.) it was 90.2%. Moreover, the unbound share (fraction unbound) at 4 h, 5 μM came to 0.056 in series [1] (pH 7.4, 37° C.) and 0.098 in series [3] (pH 7.4, 37° C.). In addition, the “HTR reversal quantified in 10-minute bins” value in series [2] (0-10, 10-20, 20-30 min post trazodone, even at the lowest dose) is “rapid and robust HTR reversal effect”. Also, the “onset of reversal of DOPR HTR” value in series [2] (all trazodone doses tested, SC, 45 min after DOPR 3.2 mg/kg SC) is at most 2 min. In series [2] (all trazodone doses tested, limited by recording period), the “persistence of HTR reversal effect” value is at least 30 min. For the same compound, the “reversal of DOPR-induced HTR in the 20-30-minute time bin” value in series [2] (lowest dose of trazodone (1 mg/kg SC)) is listed as “full reversal”. In addition, in series [2] (mice, total plasma concentration 25 min after 1 mg/kg SC trazodone), the “minimum efficacious concentration (MEC) in plasma for reversal” value is recorded as at most 369 ng/mL. Also, in series [2] (trazodone 1, 1.8, 3.2 or 10 mg/kg SC 45 min after DOPR 3.2 mg/kg SC, 30-min recording, all doses incl. lowest), the “reversal of HTR induced by DOPR” value is recorded as “fully reversed”. In addition, the T1/2 in series [4] (25 mg IV, Greenblatt, 1987) was 5.3 h; in series [4] (50 mg PC, Greenblatt, 1987), 5.2 h; in series [4] (50 mg PO, Gammans, 1984), 13.3 h; in series [4] (90 mg IV, Nilsen, 1992) it was 7.3 h; in series [4] (100 mg PO, Bayer, 1983), 6.0 h; in series [4] (100 mg PO, Kale, 2015), 13.1 h. Moreover, in series [4] (100 mg PO, Nilsen, 1992), the T1/2 was 7.8 h. In addition, the “Cmax (ng/mL per mg dosed)” value is given as 18.8 ng/mL per mg dosed in series [4] (50 mg PC, Greenblatt, 1987); 17.16 ng/mL per mg dosed in series [4] (50 mg PO, Gammans, 1984); 16 ng/mL per mg dosed in series [4] (100 mg PO, Bayer, 1983); 15.47 ng/mL per mg dosed in series [4] (100 mg PO, Kale, 2015); 18.8 ng/mL per mg dosed in series [4] (100 mg PO, Nilsen, 1992); 17.2 ng/mL per mg dosed in series [5] (PO). The Tmax is 1.02 h in series [4] (50 mg PC, Greenblatt, 1987); 0.9 h in series [4] (50 mg PO, Gammans, 1984); 2 h in series [4] (100 mg PO, Bayer, 1983); 2.25 h in series [4] (100 mg PO, Kale, 2015); 1.34 h in series [4] (100 mg PO, Nilsen, 1992); 1.5 h in series [5] (human, plasma, PO). Besides, the half-life in series [4] (human) is 6 to 12 h; in series [5] (human, plasma, IV), 6.3 h; in series [5] (human, plasma, PO) it was 9.1 h.
On to `CCc1cc(OC)c(CCN)cc1OC` [2C-E, 2-(4-Ethyl-2,5-dimethoxyphenyl)ethanamine], for which the “Typical Fully Psychedelic Dose Range” value at 5-HT2A receptor (oral) is on record as 10-20, oral ~mg per ~70 kg human.
For `COc1cc(CC(C)N)c(OC)cc1C` (stereo not shown) [DOM, 2,5-dimethoxy-4-methylamphetamine], the “Typical Fully Psychedelic Dose Range” value at 5-HT2A receptor (oral) is recorded as 3-5, oral ~mg per ~70 kg human.
Take `CN(C)CCc1c[nH]c2ccccc12` [DMT, N,N-dimethyltryptamine]: on 5-HT2A receptor (smoked), the “Typical Fully Psychedelic Dose Range” value is given as 20-40, smoked ~mg per ~70 kg human.
`COc1cc(CCN)cc(OC)c1OC` [mescaline]: at 5-HT2A receptor (oral), the “Typical Fully Psychedelic Dose Range” value was 200-400, oral ~mg per ~70 kg human.
Regarding `COc1cc(CCN)c(OC)cc1Br` [2C-B], the “Typical Fully Psychedelic Dose Range” value on 5-HT2A receptor (oral) was 15-25, oral ~mg per ~70 kg human.
Turning to `CN(C)CCc1c[nH]c2cccc(O)c12` [psilocin], the “Typical Fully Psychedelic Dose Range” value on 5-HT2A receptor (oral) is listed as 15-25, oral ~mg per ~70 kg human.
Take `CCN(CC)C(=O)[C@@H]1C=C2c3cccc4[nH]cc(c34)C[C@H]2N(C)C1` [LSD, lysergic acid diethylamide]: the “Typical Fully Psychedelic Dose Range” value on 5-HT2A receptor (oral) is 0.1-0.2, oral ~mg per ~70 kg human.
Regarding `COc1ccc2[nH]cc(CCN(C)C)c2c1` [5-MeO-DMT, 5-methoxy-N,N-dimethyltryptamine], at 5-HT2A receptor (smoked), the “Typical Fully Psychedelic Dose Range” value was 5-10, smoked ~mg per ~70 kg human.

For orientation: fraction unbound means free concentration divided by total concentration. As usually defined, the Tmax is the time from dosing to the highest level. The half-life is how long it takes for the measured level to halve.
